Numbers after ± are expanded uncertainties. Values belong to the molecule of their own block, whether it stands above or below them.
Experiments:
[1] = 298.15 K; 101.33 kPa; Liquid; Vibrating tube method
[2] = refractive index (Na D-line) (dimensionless); settings: 298.15 K; 101.33 kPa; Liquid; Automatic Refractometer
[3] = xn = mol fraction of the nth substance listed; settings: 298.15 K, 101.3 kPa, Liquid, Vibrating tube method

- mass density [1]: 1219.61 ± 0.42 kg/m3
- refractive index [2]: 1.50591 ± 0.00022
Compound: CCOS(=O)(=O)[O-].CC[n+]1cccc(C)c1 [1-ethyl-3-methylpyridinium ethylsulfate]

Compound: CCCCCCC [heptane] + Cc1ccccc1
- mass density ([3]; x1 = 1): 679.56 ± 0.2 kg/m3

Compound: CCCCCCCCC [nonane] + Cc1ccccc1
- mass density ([3]; x1 = 0.096): 838.74 ± 0.27 kg/m3
- mass density ([3]; x1 = 0.1942): 817.91 ± 0.25 kg/m3
- mass density ([3]; x1 = 0.2952): 799.09 ± 0.24 kg/m3
- mass density ([3]; x1 = 0.3954): 782.63 ± 0.23 kg/m3
- mass density ([3]; x1 = 0.4954): 768.02 ± 0.23 kg/m3
- mass density ([3]; x1 = 0.5929): 755.35 ± 0.23 kg/m3
- mass density ([3]; x1 = 0.6939): 743.54 ± 0.24 kg/m3
- mass density ([3]; x1 = 0.7939): 732.97 ± 0.25 kg/m3
- mass density ([3]; x1 = 0.8947): 723.28 ± 0.26 kg/m3
- mass density ([3]; x1 = 1): 713.99 ± 0.26 kg/m3

Compound: CCCCCCCC [octane] + Cc1ccccc1
- mass density ([3]; x1 = 0.0982): 838.13 ± 0.27 kg/m3
- mass density ([3]; x1 = 0.1977): 816.31 ± 0.26 kg/m3
- mass density ([3]; x1 = 0.2975): 796.62 ± 0.24 kg/m3
- mass density ([3]; x1 = 0.3983): 778.64 ± 0.23 kg/m3
- mass density ([3]; x1 = 0.5005): 761.92 ± 0.23 kg/m3
- mass density ([3]; x1 = 0.5988): 747.35 ± 0.22 kg/m3
- mass density ([3]; x1 = 0.699): 733.63 ± 0.22 kg/m3
- mass density ([3]; x1 = 0.7966): 721.31 ± 0.22 kg/m3
- mass density ([3]; x1 = 0.8955): 709.92 ± 0.22 kg/m3
- mass density ([3]; x1 = 1): 698.6 ± 0.19 kg/m3

Compound: Cc1ccccc1 [toluene] + CCCCCCC
- mass density ([3]; x2 = 0): 862.17 ± 0.14 kg/m3
- mass density ([3]; x2 = 0.0974): 838.12 ± 0.28 kg/m3
- mass density ([3]; x2 = 0.1996): 814.81 ± 0.27 kg/m3
- mass density ([3]; x2 = 0.2997): 793.52 ± 0.26 kg/m3
- mass density ([3]; x2 = 0.397): 774.31 ± 0.25 kg/m3
- mass density ([3]; x2 = 0.497): 755.94 ± 0.24 kg/m3
- mass density ([3]; x2 = 0.5961): 738.9 ± 0.24 kg/m3
- mass density ([3]; x2 = 0.6967): 722.76 ± 0.24 kg/m3
- mass density ([3]; x2 = 0.7958): 707.78 ± 0.24 kg/m3
- mass density ([3]; x2 = 0.8973): 693.24 ± 0.23 kg/m3

Compound: Cc1ccccc1 [toluene] + CCCCCCCC
- mass density ([3]; x2 = 0): 862.17 ± 0.14 kg/m3

Compound: Cc1ccccc1 [toluene] + CCCCCCCCC
- mass density ([3]; x2 = 0): 862.17 ± 0.14 kg/m3

From the NIST ThermoML archive (doi:10.1016/j.jct.2010.01.008)
